Measured values taken from article PMC8390788 (Bioscience Reports, 2021).
“Also recorded” adds a separate entry of the source. No end group written: not given here.

Tests used:
[1] = Enzymatic stability in murine plasma; type: in vitro ADME; settings: 37°C, HPLC separation, MS analysis, percentage from peak areas; for remaining at 2 h / remaining at 4 h / remaining at 8 h: mouse; for remaining at 2 h: 2-h incubation, read-out: Percentage intact peptide remaining (%) 2 h; for remaining at 4 h / Percentage intact peptide remaining (%) 4 h: 4-h incubation; for remaining at 4 h: read-out: Percentage intact peptide remaining (%) 4 h; for remaining at 8 h / Percentage intact peptide remaining (%) 8 h: 8-h incubation; for remaining at 8 h: read-out: Percentage intact peptide remaining (%) 8 h
Description: When incubated together with murine plasma, Ac-NT/XN-8-Gln remained 100% intact up to and including 4 h, and over 90% peptide intact over an extended 8-h incubation period (Table 1).

BRIN-BD11 cells = experiment: In vitro insulin secretion from BRIN-BD11 cells (radioimmunoassay); type: cell-based; settings: 20 min; for Effect on glucose-stimulated insulin secretion: 16.7 mM glucose, n=8 (Figure 1B); for Effect on GIP-induced insulin secretion: with 10^−7 M GIP, 5.6 mM glucose, n=8 (Figure 1C); for Effect on GLP-1 evoked insulin release: with 10^−7 M GLP-1, 5.6 mM glucose, n=8 (Figure 1D)
Description: The in vitro insulin secretory activity of test peptides was examined in BRIN-BD11 cells, cultured and maintained as previously described. For experimentation, BRIN-BD11 cells were seeded in 24-well plates at a cell density of 150000 cells/well, and allowed to attach overnight at 37°C. Following pre-incubation with Krebs–Ringer bicarbonate buffer (KRBB) (pH 7.4) supplemented with 0.5% (w/v) BSA and 1.1 mM glucose (40 min; 37°C), cells were then incubated with test peptides alone (10^−6–10^−12 M), or in combination with either GIP or GLP-1 (10^−7 M), at 5.6 or 16.7 mM glucose, as appropriate for 20 min. […] Aliquots of assay buffer (200 μl) were collected and stored at −20°C prior to assessment of insulin concentrations by an in-house radioimmunoassay. To confirm insulin secretory activity of Ac-NT/XN-8-Gln, pancreatic islets were isolated from lean C57BL/6 mice by collagenase digestion, as described previously and insulin secretion determined as outlined above (16.7 mM glucose), but over a 60-min test incubation period.
Figure 1 Acute effects of acetyl-neurotensin(8-13), xenin-8-Gln, Ac-NT/XN-8-Gln alone and in combination with GIP or GLP-1, on insulin release from BRIN-BD11 cells and isolated mouse islets BRIN-BD11 cells were incubated (20 min) with a range of concentrations (10^−12 to 10^−6 M) of acetyl-neurotensin(8-13), xenin-8-Gln or Ac-NT/XN-8-Gln alone (A,B) or in combination with GIP (C) or GLP-1 (D) in the presence of (A,C,D) 5.6 or (B) 16.7 mM glucose. (E) Murine islets were incubated (60 min) with Ac-NT/XN-8-Gln (10^−8 and 10^−6 M) in the presence 16.7 mM glucose. (A–E) Insulin release was measured using radioimmunoassay. Values represent means ± SEM (n=8 for (A–D) and n=5 for (E)). *P<0.05 and ***P<0.001 compared with respective glucose controls. ^∆P<0.05, ^∆∆P<0.01 and ^∆∆∆P<0.001 compared with respective 10^−7 M GIP or GLP-1 control.

BRIN-BD11 β-cells = experiment: β-cell proliferation, Ki-67 immunostaining; type: cell-based; settings: 18 h, 10^−8 and 10^−6 M, n=3–4, vs media control (Figure 2A)
Description: BRIN-BD11 β-cells were used to investigate effects of test peptides (10^−8 and 10^−6 M) on β-cell proliferation and protection against apoptosis. GLP-1 was employed as a positive control for all studies. Ki-67 immunostaining was used to assess effects on proliferation. Briefly, cells were seeded on to coverslips (40000 cells per coverslip) and cultured overnight (18 h; 37°C), in the presence of test peptides (10^−8 and 10^−6 M). Cells were then washed with PBS, and fixed using 4% paraformaldehyde. Following antigen retrieval with citrate buffer (90°C for 20 min), tissues were blocked using 1.1% BSA for 30 min. Cells were then incubated with Ki-67 primary antibody (1:500; Abcam, ab15580), followed by Alexa Fluor® 488 secondary antibody (1:400, Invitrogen, A-11008). Coverslips were washed with PBS, mounted on slides for viewing using a fluorescent microscope (Olympus System Microscope) and photographed by DP70 camera adapter system. Proliferation frequency was expressed as percentage of total cells analysed. For analysis of the ability of test peptides (10^−8 and 10^−6 M) to protect against apoptosis, cells were seeded as above, but apoptosis evoked through activation of caspase 3 and 7 activity by a luminogenic, tetrapeptide sequence DEVD Caspase-Glo® 3/7 substrate. Caspase induced cleavage of the substrate was then assessed by an ApoLive-Glow™ Multiplex assay kit, according to the protocol provided by the manufacturer (Promega, Wisconsin, U.S.A.).
(A) Proliferation was measured using Ki-67 immunocytochemistry. (B) Caspase-3/7 activation was detected by luminescence.

isolated mouse islets = experiment: Insulin secretion from isolated mouse islets; type: cell-based, C57BL/6 mice; settings: 16.7 mM glucose, 60 min, peptide 10^−8 and 10^−6 M, n=5 (Figure 1E)
Description: The in vitro insulin secretory activity of test peptides was examined in BRIN-BD11 cells, cultured and maintained as previously described. For experimentation, BRIN-BD11 cells were seeded in 24-well plates at a cell density of 150000 cells/well, and allowed to attach overnight at 37°C. Following pre-incubation with Krebs–Ringer bicarbonate buffer (KRBB) (pH 7.4) supplemented with 0.5% (w/v) BSA and 1.1 mM glucose (40 min; 37°C), cells were then incubated with test peptides alone (10^−6–10^−12 M), or in combination with either GIP or GLP-1 (10^−7 M), at 5.6 or 16.7 mM glucose, as appropriate for 20 min. […] To confirm insulin secretory activity of Ac-NT/XN-8-Gln, pancreatic islets were isolated from lean C57BL/6 mice by collagenase digestion, as described previously and insulin secretion determined as outlined above (16.7 mM glucose), but over a 60-min test incubation period.
Figure 1 Acute effects of acetyl-neurotensin(8-13), xenin-8-Gln, Ac-NT/XN-8-Gln alone and in combination with GIP or GLP-1, on insulin release from BRIN-BD11 cells and isolated mouse islets BRIN-BD11 cells were incubated (20 min) with a range of concentrations (10^−12 to 10^−6 M) of acetyl-neurotensin(8-13), xenin-8-Gln or Ac-NT/XN-8-Gln alone (A,B) or in combination with GIP (C) or GLP-1 (D) in the presence of (A,C,D) 5.6 or (B) 16.7 mM glucose. […] (A–E) Insulin release was measured using radioimmunoassay. […]

Molecule	remaining at 2 h [1] [%]	remaining at 4 h [1] [%]	remaining at 8 h [1] [%]	Effect on glucose-stimulated insulin secretion (BRIN-BD11 cells)	Effect on GIP-induced insulin secretion (BRIN-BD11 cells)	Effect on GLP-1 evoked insulin release (BRIN-BD11 cells)	β-cell proliferation (Ki-67) (BRIN-BD11 β-cells)	Percentage intact peptide remaining (%) 4 h [1]	Percentage intact peptide remaining (%) 8 h [1]	Insulin release from isolated mouse islets (isolated mouse islets)
CC[C@H](C)[C@H](NC(=O)[C@H](Cc1ccc(O)cc1)NC(=O)[C@@H]1CCCN1C(=O)[C@H](CCCNC(=N)N)NC(=O)[C@H](CCCNC(=N)N)NC(C)=O)C(=O)N[C@@H](CC(C)C)C(=O)O [Acetyl-neurotensin(8-13)]	98.2	94.4	89.6	inhibited	no effect	inhibit	augmented	–	–	–
Ac-RRPYILHPQQPWIL [Ac-NT/XN-8-Gln]	100	–	91.7	–	augmented; also recorded: similar, but more prominent, bioactivity profile	perturb	augmented	100%	over 90%	Prominent (P<0.01) insulinotropic actions
HPQQPWIL [Xenin-8-Gln]	100	98.3	–	retained significant insulinotropic actions	augmented	no impact	devoid of benefits	–	94.1%	–
glucagon-like peptide-1 [Native GLP-1]	–	–	–	–	–	–	–	fully degraded	–	–
